For 17 compounds, IC50 and inhibition results are on record in patent publication US6458781B1, “Substituted diarylalkyl amides as calcium channel antagonists” (priority 1998, dated 2002).

Experiment [1] addresses T1, L-type calcium channels in A10 cells (Rattus norvegicus, UniProt P22002).
T1 construct: which endogenously expresses L-type calcium channels; host or cells: A10 rat embryonic thoracic aorta smooth muscle cells
Kind of experiment: L-type Ca2+ channel blocking potency in A10 cells (FLIPR). In kind it is cell-based. As to conditions: read-out: FLPA10 IC50. How it is done: Measurement of L-type Ca^2+ Channel Blocking Potencies of Compounds in A10 Cells
Calcium flux through voltage-sensitive calcium channels was assessed by time-resolved monitoring of the fluorescence of pre-loaded calcium-sensitive dyes using FLIPR, a fluorescent image plate reader (Molecular Devices Co.). The A10 smooth muscle cell line derived from embryonic thoracic aorta of the DBIX rat (ATCC, CRL-1476) which endogenously expresses L-type calcium channels. The growth media for A10 cells was Ham's F12/DME high glucose (Irvine Scientific, 9052), supplemented with 20% fetal bovine serum (HyClone Labs, A-1115-L), and 1% each of L-glutamine and antibiotic-antimycotic (same source as above).
Cells were grown to confluency and replated on black-sided 96-well plates (Costar, 3603) for use in FLIPR. Two days after replating, growth media was removed and cells were loaded at 37° C. with 100 μL media containing 1 μM Oregon Green 488 Bapta-1 dye (Molecular Probes, O-6807) for 1 to 3 hours. The dye-containing media was then washed away with buffer (composition in mM: 1.25 CaCl2, 1.2 MgSO4, 11 glucose, 10 HEPES, 3.0 KCl, 137.0 NaCl, pH 7.4 with Tris base) in a Denley Cellwash (Labsystems, CW018B). The residual buffer volume was adjusted to 50 μL. A 5 minute drug-pre-incubation period at 35° C. was initiated when 50 μL of drug-containing buffer was pipetted into the cell plate with the 96-well pipettor integrated in the FLIPR apparatus. Fluorescent counts were monitored at 20 second intervals for 360 seconds, beginning 60 seconds prior to the delivery of drug-containing buffer. Following drug addition, 100 μL aliquots of a high K^+, depolarizing stimulus (composition in mM: 1.25 CaCl2, 1.2 MgSO4, 11 glucose, 10 HEPES, 140.0 KCl, pH 7.4 with Tris base) were added to each well, and fluorescence was monitored at 1 second intervals for 120 seconds beginning 10 seconds prior to the stimulus addition. CCD camera exposure time was 0.4 seconds, laser excitation was at 488 nm with a power of 0.2-0.5W, and a 510 to 560 nm bandpass interference filter preceded the camera.
Data was analyzed as a summation of fluorescent counts above basal during the stimulation period (an approximation of area under the curve), after normalizing the data with a spatial uniformity correction (for variations in laser illumination and cell density) and a negative control correction (zero calcium increase defined as the fluorescence reading in the presence of saturating pharmacologic block of the respective calcium channel). Drug effects were expressed as percent inhibition of fluorescence from an average of 8 K^+-stimulated wells which were pre-treated in the drug incubation period with buffer only. In the A10 cells, the pharmacologic agent used to define zero calcium influx was nitrendipine (RBI, N-144) at a final concentration of 1.0×10^−6 M.

The target in experiment [2] is T2, N-type calcium channels in IMR-32 cells (Homo sapiens, UniProt Q00975).
T2 construct: host or cells: IMR-32 cells differentiated with dibutyryl cAMP and bromodeoxyuridine
Kind of experiment: N-type Ca2+ channel blocking potency in IMR-32 cells using Indo-1. In kind it is cell-based. As to conditions: for IC50: IMR-32 cells, estimated from two data points, read-out: IMR32 IC50 (estimated IC50 values based on two data points); for inhibition at 1 µM / inhibition at 10 µM: IMR-32, IMR-32 cells; for inhibition at 1 µM: read-out: IMR32 % blockage at 1 μM; for inhibition at 10 µM: read-out: IMR32 % blockage at 10 μM. Here is the method: Measurement of N-type Ca^2+ Channel Blocking Potencies of Compounds in IMR-32 Cells Using the Fluorescent Ca^2+ Indicator Indo-1
IMR-32 cells are a human tumoral cell line of neural origin. […] Calcium flux into these cells may be induced by stimulation with elevated potassium concentrations. The L-channel component of calcium flux may be blocked by adding 5 μM nitrendipine. The remaining component of calcium entry into the IMR-32 cells is due to calcium flux through N-type calcium channels. Intracellular calcium concentrations are measured using the fluorescent calcium indicator Indo-1. The effect of drug concentration on calcium uptake is studied.
The IMR-32 cell line was obtained from the American Type Culture Collection (Rockville, Md.). Cells were grown in Eagle's Minimum Essential Medium with Earle's salts supplemented with 10% fetal bovine serum, 2 mM L-Gln and antibiotic/antimycotic mixture (Gibco). At approximately 80% confluency, differentiation was induced by the addition of 1 mM dibutyryl cAMP and 2.5 μM bromodeoxyuridine to the medium. After 7 to 13 days of differentiation, cells were detached using 0.5 mM EDTA and loaded with 5 μM Indo-1 acetoxymethyl ester (Molecular Probes, Eugene, Oreg.) at 30° C. for 45 minutes. Loaded cells were washed twice, resuspended (˜10^7 cells/mL) in assay buffer (10 mM HEPES/Tris pH 7.4 in Hank's Balanced Salt Solution without bicarbonate or phenol red containing 0.5% bovine serum albumin) and kept on ice until use. Fluorescence measurements were carried out in a Photon Technology International (PTI, South Brunswick, N.J.) Model RF-F3004 spectrofluorometer with dual emission monochromators using excitation at 350 nm and emission at 400 and 490 nm. The instrument was equipped with a thermostated cuvette holder with stirring capabilities as well as with a computer-controlled pump which allowed for reagent addition during measurement. Instrument control and data collection was done by PTI's OSCAR software running on an IBM compatible computer. Different concentrations of the test compounds (60 μL in dimethyl sulfoxide) were added to 5.94 mL of assay buffer containing approximately 3×10^6 loaded cells, and 5 μM Nitrendipine (in 30 μL EtOH) to block L-type Ca^2+ channels. Samples were incubated for 10 minutes at 30° C. and the aliquot into three 10×10 mm disposable acrylic cuvettes. Emission signals at 400 and 490 nm were acquired from each cuvette at 30° C. for 50 seconds. At 20 seconds after the start of reading, cells were depolarized by the addition of 160 μL of stimulation solution (1 M KCl, 68 mM CaCl2) to the cuvette via the computer-controlled pump. Ratio of dual emission signals (400/490 nm), which is proportional to intracellular Ca^2+ concentration, was plotted against time, and the difference between maximal response after stimulation and basal value (before stimulation) was determined. Values obtained in this way were plotted as a function of drug concentration. IC50 values of test compounds were calculated by fitting a four-parameter logistic function to the data using the least squares method.

Where a name gives a salt, the structure may show the parent alone.

T1 sequence (P22002 whole entry): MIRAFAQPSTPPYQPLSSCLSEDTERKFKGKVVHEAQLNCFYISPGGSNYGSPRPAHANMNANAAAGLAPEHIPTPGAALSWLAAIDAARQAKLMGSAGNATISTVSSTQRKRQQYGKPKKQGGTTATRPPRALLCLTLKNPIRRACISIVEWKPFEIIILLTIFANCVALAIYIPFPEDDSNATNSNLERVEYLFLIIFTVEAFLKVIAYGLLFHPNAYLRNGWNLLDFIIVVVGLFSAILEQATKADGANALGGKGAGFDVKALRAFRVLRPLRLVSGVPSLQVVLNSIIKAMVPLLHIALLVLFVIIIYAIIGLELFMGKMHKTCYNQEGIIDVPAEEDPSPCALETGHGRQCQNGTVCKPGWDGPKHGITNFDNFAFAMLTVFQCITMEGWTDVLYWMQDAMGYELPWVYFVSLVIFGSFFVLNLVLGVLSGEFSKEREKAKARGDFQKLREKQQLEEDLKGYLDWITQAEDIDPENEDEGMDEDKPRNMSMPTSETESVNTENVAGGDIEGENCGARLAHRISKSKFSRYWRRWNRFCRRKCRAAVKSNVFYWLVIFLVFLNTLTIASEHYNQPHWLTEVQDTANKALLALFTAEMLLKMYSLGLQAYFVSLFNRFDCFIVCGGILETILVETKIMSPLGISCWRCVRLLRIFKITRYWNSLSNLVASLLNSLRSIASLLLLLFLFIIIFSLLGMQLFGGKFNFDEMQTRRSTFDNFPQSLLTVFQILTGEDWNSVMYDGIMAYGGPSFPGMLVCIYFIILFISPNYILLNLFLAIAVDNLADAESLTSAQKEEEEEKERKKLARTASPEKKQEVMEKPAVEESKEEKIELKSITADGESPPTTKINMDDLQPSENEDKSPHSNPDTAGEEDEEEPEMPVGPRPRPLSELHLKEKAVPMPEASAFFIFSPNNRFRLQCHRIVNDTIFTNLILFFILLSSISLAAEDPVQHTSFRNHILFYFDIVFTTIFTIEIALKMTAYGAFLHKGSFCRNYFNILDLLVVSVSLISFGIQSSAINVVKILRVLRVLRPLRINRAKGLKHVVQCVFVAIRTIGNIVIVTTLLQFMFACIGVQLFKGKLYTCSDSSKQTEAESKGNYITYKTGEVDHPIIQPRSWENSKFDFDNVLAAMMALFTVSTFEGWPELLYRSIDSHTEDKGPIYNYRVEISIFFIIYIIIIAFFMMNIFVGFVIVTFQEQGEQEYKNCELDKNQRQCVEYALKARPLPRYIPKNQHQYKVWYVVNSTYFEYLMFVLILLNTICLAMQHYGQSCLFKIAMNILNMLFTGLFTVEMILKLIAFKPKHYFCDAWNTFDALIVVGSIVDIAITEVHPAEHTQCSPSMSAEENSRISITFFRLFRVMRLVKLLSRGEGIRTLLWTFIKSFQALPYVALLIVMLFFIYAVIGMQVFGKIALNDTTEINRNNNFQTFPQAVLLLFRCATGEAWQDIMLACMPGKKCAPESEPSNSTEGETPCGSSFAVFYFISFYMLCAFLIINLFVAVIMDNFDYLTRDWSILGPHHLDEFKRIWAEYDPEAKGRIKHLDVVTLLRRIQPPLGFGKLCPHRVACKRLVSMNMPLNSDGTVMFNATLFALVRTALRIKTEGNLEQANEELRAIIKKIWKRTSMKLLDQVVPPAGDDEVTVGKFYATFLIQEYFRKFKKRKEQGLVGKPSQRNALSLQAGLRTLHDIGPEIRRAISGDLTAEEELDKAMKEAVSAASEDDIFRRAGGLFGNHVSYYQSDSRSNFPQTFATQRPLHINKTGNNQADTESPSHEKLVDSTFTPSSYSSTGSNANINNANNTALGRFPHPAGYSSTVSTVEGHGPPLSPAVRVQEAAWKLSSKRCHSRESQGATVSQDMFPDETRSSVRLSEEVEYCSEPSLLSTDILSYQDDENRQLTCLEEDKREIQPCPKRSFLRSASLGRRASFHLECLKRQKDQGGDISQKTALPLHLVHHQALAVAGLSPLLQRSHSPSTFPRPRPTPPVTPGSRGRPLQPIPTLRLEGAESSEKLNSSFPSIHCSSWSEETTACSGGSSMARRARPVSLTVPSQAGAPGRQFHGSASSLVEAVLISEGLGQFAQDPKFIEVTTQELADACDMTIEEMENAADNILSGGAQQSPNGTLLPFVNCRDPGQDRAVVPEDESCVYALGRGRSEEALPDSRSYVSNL
T1 sequence (P54290 25-944 partner limits assumed): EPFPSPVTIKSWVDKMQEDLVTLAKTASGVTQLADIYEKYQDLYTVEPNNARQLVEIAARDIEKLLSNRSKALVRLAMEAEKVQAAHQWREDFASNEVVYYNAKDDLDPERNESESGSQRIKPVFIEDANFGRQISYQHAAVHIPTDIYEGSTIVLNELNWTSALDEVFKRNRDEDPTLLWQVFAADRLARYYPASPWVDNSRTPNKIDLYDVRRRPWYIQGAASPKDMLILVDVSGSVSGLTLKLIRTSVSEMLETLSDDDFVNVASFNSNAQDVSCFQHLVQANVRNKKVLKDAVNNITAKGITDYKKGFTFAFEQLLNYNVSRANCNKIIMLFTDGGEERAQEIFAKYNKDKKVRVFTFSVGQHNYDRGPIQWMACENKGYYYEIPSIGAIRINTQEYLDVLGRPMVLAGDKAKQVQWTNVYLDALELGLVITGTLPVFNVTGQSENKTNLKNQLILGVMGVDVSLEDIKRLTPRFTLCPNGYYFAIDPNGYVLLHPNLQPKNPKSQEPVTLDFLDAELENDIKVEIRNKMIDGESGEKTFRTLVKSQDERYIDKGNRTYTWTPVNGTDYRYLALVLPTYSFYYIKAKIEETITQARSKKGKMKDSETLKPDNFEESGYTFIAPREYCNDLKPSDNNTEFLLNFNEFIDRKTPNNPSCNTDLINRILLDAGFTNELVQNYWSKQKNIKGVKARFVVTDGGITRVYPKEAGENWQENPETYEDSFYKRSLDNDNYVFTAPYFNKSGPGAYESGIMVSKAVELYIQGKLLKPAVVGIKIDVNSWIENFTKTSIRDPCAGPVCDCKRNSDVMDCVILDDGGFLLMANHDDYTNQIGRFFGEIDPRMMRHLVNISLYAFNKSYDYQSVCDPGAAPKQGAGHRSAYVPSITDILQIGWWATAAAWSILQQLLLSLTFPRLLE
T1 sequence (P54290 945-1091 partner limits assumed): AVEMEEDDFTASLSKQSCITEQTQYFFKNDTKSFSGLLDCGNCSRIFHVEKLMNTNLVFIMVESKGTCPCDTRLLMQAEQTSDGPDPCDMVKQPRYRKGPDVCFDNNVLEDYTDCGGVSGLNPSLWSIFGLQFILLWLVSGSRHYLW
T1 sequence (P54287 whole entry partner): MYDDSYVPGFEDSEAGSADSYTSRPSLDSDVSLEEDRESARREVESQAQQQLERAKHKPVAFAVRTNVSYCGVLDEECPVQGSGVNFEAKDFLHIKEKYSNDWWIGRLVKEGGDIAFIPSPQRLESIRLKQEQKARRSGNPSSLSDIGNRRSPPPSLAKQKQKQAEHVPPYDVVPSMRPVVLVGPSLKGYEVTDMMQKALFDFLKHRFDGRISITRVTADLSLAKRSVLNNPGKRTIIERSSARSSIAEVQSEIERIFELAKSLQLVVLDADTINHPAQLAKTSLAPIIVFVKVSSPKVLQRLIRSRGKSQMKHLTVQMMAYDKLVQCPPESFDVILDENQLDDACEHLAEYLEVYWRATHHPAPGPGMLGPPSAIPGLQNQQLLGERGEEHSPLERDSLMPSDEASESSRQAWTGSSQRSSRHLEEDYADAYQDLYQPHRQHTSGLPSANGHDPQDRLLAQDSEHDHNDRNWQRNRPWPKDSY

For orientation: IC50 means the concentration needed to halve the response being measured. With `CC(C)C[C@@H](NC(=O)N1CCCCCC1)C(=O)NCCCC(c1ccc(F)cc1)c1ccc(F)cc1` [Example 2, (R)-Azepane-1-carboxylic acid {1-[4,4-bis-(4-fluoro-phenyl)-butylcarbamoyl]-3-methyl-butyl}-amide], the IC50 in experiment [1] was determined as 290 nM.
Take `CC(C)C[C@H](NC1CCOCC1)C(=O)NCCCC(c1ccc(F)cc1)c1ccc(F)cc1` [Example 18, (S)-4-Methyl-2-(tetrahydro-pyran-4-ylamino)-pentanoic acid [4,4-bis-(4-fluoro-phenyl)-butyl]-amide]: the IC50 is 2000 nM in experiment [2] and 570 nM in experiment [1].
In the same order, the values of `CC(C)C[C@H](NC(C)C)C(=O)NCCCC(c1ccc(F)cc1)c1ccc(F)cc1` [Example 19, (S)-2-Isopropylamino-4-methyl-pentanoic acid [4,4-bis-(4-fluoro-phenyl)-butyl]-amide monohydrochloride] are 1100 nM and 660 nM.
Take `CC(C)C[C@@H](C(=O)NCCCC(c1ccc(F)cc1)c1ccc(F)cc1)N(C)C` [Example 20, (S)-2-Dimethylamino-4-methyl-pentanoic acid [4,4-bis-(4-fluoro-phenyl)-butyl]-amide monohydrochloride]: in experiment [2], the inhibition at 1 µM is 25% and the inhibition at 10 µM came to 92%. In experiment [1], the IC50 was 470 nM.
The like results for `CC(C)C[C@@H](C(=O)NCCCC(c1ccc(F)cc1)c1ccc(F)cc1)N(C)C1CCCCC1` [Example 21, (S)-2-(Cyclohexyl-methyl-amino)-4-methyl-pentanoic acid [4,4-bis-(4-fluoro-phenyl)-butyl]-amide monohydrochloride] were, in that order, 71%, 94% and 270 nM.
In the case of `CC(C)C[C@@H](C(=O)NCCCC(c1ccc(F)cc1)c1ccc(F)cc1)N1CCOCC1` [Example 23, (S)-4-Methyl-2-morpholin-4-yl-pentanoic acid [4,4-bis-(4-fluoro-phenyl)-butyl]-amide monohydrochloride], in experiment [2], the inhibition at 1 µM came to 35% and the inhibition at 10 µM came to 89%. The IC50 in experiment [1] was 130 nM.
On to `CC(C)C[C@@H](C(=O)NCCC(c1ccccc1)c1ccccc1)N(C)C1CCCCC1` [Example 25, (S)-2-(Cyclohexyl-methyl-amino)-4-methyl-pentanoic acid (3,3-diphenyl-propyl)-amide monohydrochloride], for which the IC50 was 990 nM in experiment [2] and 800 nM in experiment [1].
With `CC(C)C[C@@H](C(=O)NCCCC(c1ccc(F)cc1)c1ccc(F)cc1)N(C)C1CCOCC1` [Example 27, (S)-4-Methyl-2-[methyl-(tetrahydro-pyran-4-yl)-amino]-pentanoic acid [4,4-bis-(4-fluoro-phenyl)-butyl]-amide monohydrochloride], the IC50 was 1200 nM in experiment [2] and 450 nM in experiment [1].
With `CC(C)C[C@@H](NC(=O)N1CCCCCC1)C(=O)N1CCN(C(c2ccc(F)cc2)c2ccc(F)cc2)CC1` [Example 34, (R)-Azepane-1-carboxylic acid {1-(4-[bis-(4-fluoro-phenyl)-methyl]-piperazine-1-carbonyl}-3-methyl-butyl)-amide], the IC50 in experiment [2] is 1890 nM; in experiment [1], 630 nM.
The like results for `CC(C)C[C@@H](CN1CCN(C(c2ccc(F)cc2)c2ccc(F)cc2)CC1)NC(=O)OC(C)(C)C` [Example 35, (S)-(1-{4-[Bis-(4-fluoro-phenyl)-methyl]-piperazin-1-ylmethyl}-3-methyl-butyl)-carbamic acid tert-butyl ester] were, in that order, 500 nM and 360 nM.
In the same order, the values of `CC(C)C[C@@H](C(=O)N1CCN(C(c2ccc(F)cc2)c2ccc(F)cc2)CC1)N1CCCCC1` [Example 37, (S)-1-{4-[Bis-(4-fluoro-phenyl)-methyl]-piperazin-1-yl}-4-methyl-2-piperidin-1-yl-pentan-1-one] are 2000 nM and 1400 nM.
For the compound `CC(C)C[C@H](NC(C)C)C(=O)N1CCN(C(c2ccc(F)cc2)c2ccc(F)cc2)CC1` [Example 49, (S)-1-{4-[Bis-(4-fluoro-phenyl)-methyl]-piperazin-1-yl}-2-isopropylamino-4-methyl-pentan-1-one monohydrochloride], the IC50 was 3200 nM in experiment [2] and 1000 nM in experiment [1].
As to `CC(C)C[C@H](NCc1ccccc1)C(=O)N1CCN(C(c2ccc(F)cc2)c2ccc(F)cc2)CC1` [Example 62, (S)-2-Benzylamino-1-{4-[bis-(4-fluoro-phenyl)-methyl]-piperazin-1-yl}-4-methyl-pentan-1-one], the inhibition at 10 µM in experiment [2] is 99%. The IC50 in experiment [1] was found to be 420 nM.
Take `CC(C)C[C@H](NC1CCOCC1)C(=O)N1CCN(C(c2ccc(F)cc2)c2ccc(F)cc2)CC1` [Example 63, (S)-1-{4-[Bis-(4-fluoro-phenyl)-methyl]-piperazin-1-yl}-4-methyl-2-(tetrahydro-pyran-4-ylamino)-pentan-1-one]: the IC50 in experiment [1] stood at 1100 nM.
As for `CC(C)N[C@H](C(=O)NCCCC(c1ccc(F)cc1)c1ccc(F)cc1)C(C)C` [Example 65, (S)-N-[4,4-Bis-(4-fluoro-phenyl)-butyl]-2-isopropylamino-3-methyl-butyramide], the inhibition at 10 µM in experiment [2] was found to be 83%. Besides, the IC50 in experiment [1] was 680 nM.
As to `CCC(C)N[C@H](C(=O)NCCCC(c1ccc(F)cc1)c1ccc(F)cc1)C(C)C` (stereo partly drawn) [Example 66, (S)-N-[4,4-Bis-(4-fluoro-phenyl)-butyl]-2-sec-butylamino-3-methyl-butyramide], in experiment [2], the inhibition at 1 µM turned out to be 34% and the inhibition at 10 µM worked out at 94%. Besides, the IC50 in experiment [1] worked out at 510 nM.
In the case of `CC(C)C[C@@H](C(=O)NCCCC(c1ccc(F)cc1)c1ccc(F)cc1)N(C)C(C)C` [Example 68, (S)-2-(Isopropyl-methyl-amino)-4-methyl-pentanoic acid [4,4-bis-(4-fluoro-phenyl)-butyl]-amide], the inhibition at 10 µM in experiment [2] stood at 97%. Moreover, in experiment [1], the IC50 turned out to be 530 nM.
